Source: ChEMBL document CHEMBL5543061, “Recent advances of antitumor leading compound Erianin: Mechanisms of action and structural modification” (Eur J Med Chem, 2023)
Blank lines part the entries; values can stand above or below the compound they belong to.

Experiments:
MCF7 [1] = assay: Cytotoxicity against human MCF7 cells assessed as reduction in cell viability incubated for 72 hrs by MTT assay; assay type: functional, cell-based; details: MCF7, 72 h
Huh-7 = assay: Antiproliferative activity against human Huh-7 cells; assay type: functional, cell-based
HepG2 [2] = assay: Anticancer activity against human HepG2 cells assessed as reduction in cell viability measured for 24 hrs by MTT assay; assay type: functional, cell-based; details: HepG2, 24 h
[3] = Half life in rat at 100 mg/kg, iv; assay type: ADME, organism-based; details: in vivo
143B [4] = assay: Antiproliferative activity against human 143B cells assessed as inhibition of cell growth measured after 24 hrs by MTT assay; assay type: functional, cell-based
[5] = Elimination half life in rat at 2 mg/kg, iv; assay type: ADME, organism-based; details: in vivo, read-out: beta t1/2 (converted)
[6] = Half life in Beagle dog at 15 mg/kg, iv measured for 8 to 12 hrs by LC-MS/MS analysis; assay type: ADME, organism-based, Canis lupus familiaris; details: in vivo, time 8-12 hrs
LNCaP [7] = assay: Cytotoxicity against human LNCaP cells assessed as reduction in cell growth incubated for 24 hrs by MTT assay; assay type: functional, cell-based
PLC-PRF-5 = assay: Antiproliferative activity against human PLC-PRF-5 cells; assay type: functional, cell-based
MDA-MB-231 = assay: Antiproliferative activity against human MDA-MB-231 cells assessed as reduction in cell viability incubated for 24 hrs by MTT assay; assay type: functional, cell-based; details: MDA-MB-231, 24 h
MIA PaCa-2 = assay: Antiproliferative activity against human MIA PaCa-2 cells assessed as reduction of cell viability incubated for 72 hrs by CCK-8 assay; assay type: functional, cell-based; details: MIA PaCa-2, 72 h
A-375 = assay: Antiproliferative activity against human A-375 cells assessed as reduction in cell viability incubated for 72 hrs by MTT assay; assay type: functional, cell-based; details: A-375, 72 h
143B [8] = assay: Antiproliferative activity against human 143B cells assessed as inhibition of cell growth measured after 72 hrs by MTT assay; assay type: functional, cell-based
HepG2 [9] = assay: Antiproliferative activity against human HepG2 cells assessed as inhibition of cell growth relative to control; assay type: functional; design: scale not given: the % may be the effect or the level left
EJM = assay: Antitumor activity against human EJM cells assessed as reduction in cell viability incubated for 24 hrs by CCK-8 assay; assay type: functional, cell-based
A549 [10] = assay: Antiproliferative activity against human A549 cells assessed as reduction in cell viability incubated for 72 hrs by MTT assay; assay type: functional, cell-based; details: A549, 72 h
NCI-H1975 = assay: Antiproliferative activity against human NCI-H1975 cells assessed as reduction in cell viability incubated for 48 hrs by MTT assay; assay type: functional, cell-based; details: NCI-H1975, 48 h
LLC-MK2 = assay: Antiproliferative activity against Rhesus monkey LLC-MK2 cells assessed as reduction in cell viability incubated for 48 hrs by MTT assay; assay type: functional, cell-based; details: Macaca mulatta, LLC-MK2, 48 h
Ishikawa = assay: Antiproliferative activity against human Ishikawa cells assessed as reduction in cell viability by MTS assay; assay type: functional, cell-based
HLE = assay: Antiproliferative activity against human HLE cells; assay type: functional, cell-based
SK-MEL3 = assay: Antiproliferative activity against human SK-MEL3 cells harboring BRAF V600E mutant assessed as reduction in cell viability by cell-titer Glo assay; assay type: functional, cell-based
T-24 = assay: Antiproliferative activity against human T24 cells assessed as reduction in cell viability incubated for 48 hrs by MTT assay; assay type: functional, cell-based; details: T-24, 48 h
[11] = Antiproliferative activity against human HEC-251 cells assessed as reduction in cell viability; assay type: functional, cell-based
[12] = Half life in Beagle dog at 30 mg/kg, iv measured for 8 to 12 hrs by LC-MS/MS analysis; assay type: ADME, organism-based, Canis lupus familiaris; details: in vivo, time 8-12 hrs
HepG2 [13] = assay: Antiproliferative activity against human HepG2 cells; assay type: functional, cell-based
[14] = Antiproliferative activity against human MG-63.3 cells assessed as reduction in cell viability measured for 48 hrs by MTT assay; assay type: functional, cell-based; details: MG-63.3, 48 h
[15] = Antiproliferative activity against human MG-63.3 cells assessed as reduction in cell viability measured for 24 hrs by MTT assay; assay type: functional, cell-based; details: MG-63.3, 24 h
[16] = Oral bioavailability in rat at 10 mg/kg; assay type: ADME, organism-based; details: in vivo
HepG2 [17] = assay: Anticancer activity against human HepG2 cells assessed as reduction in cell viability; assay type: functional, cell-based
[18] = Half life in rat at 50 mg/kg, iv; assay type: ADME, organism-based; details: in vivo
HL-60 [19] = assay: Antiproliferative activity against human HL-60 cells assessed as reduction in cell viability incubated for 72 hrs by MTT assay; assay type: functional, cell-based; details: HL-60, 72 h
143B [20] = assay: Antiproliferative activity against human 143B cells assessed as inhibition of cell growth measured after 48 hrs by MTT assay; assay type: functional, cell-based
[21] = Antiproliferative activity against human SNU-739 cells; assay type: functional, cell-based
HCC 2998 = assay: Antiproliferative activity against human HCC 2998 cells assessed as reduction in cell viability incubated for 72 hrs by MTT assay; assay type: functional, cell-based; details: HCC 2998, 72 h
[22] = Half life in Beagle dog at 7.5 mg/kg, iv measured for 8 to 12 hrs by LC-MS/MS analysis; assay type: ADME, organism-based, Canis lupus familiaris; details: in vivo, time 8-12 hrs
PC-3 = assay: Antiproliferative activity against human PC-3 cells assessed as reduction of cell viability incubated for 24 to 72 hrs by CCK-8 assay; assay type: functional, cell-based
[23] = Antiproliferative activity against human MG-63.3 cells assessed as reduction in cell viability measured for 72 hrs by MTT assay; assay type: functional, cell-based; details: MG-63.3, 72 h
HeLa [24] = assay: Antiproliferative activity against human HeLa cells assessed as reduction in cell viability by MTT assay; assay type: functional, cell-based
HepG2 [25] = assay: Anticancer activity against human HepG2 cells assessed as cell growth reduction incubated for 48 hrs by MTT assay; assay type: functional, cell-based; details: HepG2, 48 h
MCF7 [26] = assay: Antiproliferative activity against human MCF7 cells assessed as reduction in cell viability incubated for 72 hrs by MTT assay; assay type: functional, cell-based; details: MCF7, 72 h
HL-60 [27] = assay: Cytotoxicity against human HL-60 cells assessed as reduction in cell viability incubated for 48 hrs by MTT assay; assay type: functional, cell-based; details: HL-60, 48 h
A549 [28] = assay: Antiproliferative activity against human A549 cells assessed as reduction in cell viability incubated for 48 hrs by MTT assay; assay type: functional, cell-based; details: A549, 48 h
LNCaP [29] = assay: Cytotoxicity against human LNCaP cells assessed as reduction in cell growth incubated for 48 hrs by MTT assay; assay type: functional, cell-based
[30] = Half life in rat at 25 mg/kg, iv; assay type: ADME, organism-based; details: in vivo
HepG2 [31] = assay: Anticancer activity against human HepG2 cells assessed as cell growth reduction incubated for 24 hrs by MTT assay; assay type: functional, cell-based; details: HepG2, 24 h
SNU-449 = assay: Antiproliferative activity against human SNU-449 cells; assay type: functional, cell-based
[32] = Antiproliferative activity against human EFM-192A cells; assay type: functional, cell-based
HCT-116 [33] = assay: Antiproliferative activity against human HCT-116 cells assessed as reduction in cell viability incubated for 72 hrs by MTT assay; assay type: functional, cell-based; details: HCT-116, 72 h
HepG2 [34] = assay: Antiproliferative activity against human HepG2 cells assessed as reduction in cell growth; assay type: functional, cell-based
HeLa [35] = assay: Antiproliferative activity against human HeLa cells assessed as reduction in cell viability incubated for 48 hrs by MTT assay; assay type: functional, cell-based
SMMC-7721 = assay: Antiproliferative activity against human SMMC-7721 cells assessed as reduction in cell viability incubated for 24 hrs by CCK-8 assay; assay type: functional, cell-based; details: SMMC-7721, 24 h
Bel-7402 = assay: Antiproliferative activity against human Bel-7402 cells incubated for 72 hrs by MTT assay; assay type: functional, cell-based; details: Bel-7402, 72 h
LNCaP [36] = assay: Cytotoxicity against human LNCaP cells assessed as reduction in cell growth incubated for 72 hrs by MTT assay; assay type: functional, cell-based
MDA-MB-468 = assay: Antiproliferative activity against human MDA-MB-468 cells assessed as reduction in cell viability incubated for 72 hrs by MTT assay; assay type: functional, cell-based; details: MDA-MB-468, 72 h
HuH-1 = assay: Antiproliferative activity against human HuH-1 cells; assay type: functional, cell-based
HeLa [37] = assay: Cytotoxicity against human HeLa cells assessed as reduction in cell viability by MTT assay; assay type: functional, cell-based
HeLa [38] = assay: Antiproliferative activity against human HeLa cells assessed as inhibition of cell growth incubated for 72 hrs by CCK-8 assay relative to control; assay type: functional; design: scale not given: the % may be the effect or the level left
HepG2 [39] = assay: Antiproliferative activity against human HepG2 cells assessed as inhibition of cell growth incubated for 72 hrs by CCK-8 assay relative to control; assay type: functional; design: scale not given: the % may be the effect or the level left
HCT-116 [40] = assay: Antiproliferative activity against human HCT-116 cells assessed as inhibition of cell growth incubated for 72 hrs by CCK-8 assay relative to control; assay type: functional; design: scale not given: the % may be the effect or the level left
HCT-116 [41] = assay: Anticancer activity against human HCT-116 cells; assay type: functional, cell-based
A549 [42] = assay: Cytotoxicity against human A549 cells assessed as reduction in cell viability incubated for 48 hrs by Alamar Blue assay; assay type: functional, cell-based; details: A549, 48 h

Structure (SMILES): COc1cc(CCc2ccc(OC(F)F)c(N)c2)cc(OC)c1OC
- IC50 (MCF7 [1]): 0.13 µM

- IC50 (Huh-7): 0.0443 µM
- IC50 (HepG2 [2]): 0.0437 µM
- half-life [3]: 3.89 h
- half-life [5]: 1.5 h
- half-life [6]: 1.66 h
- IC50 (MDA-MB-231): 0.071 µM
- IC50 (MIA PaCa-2): 0.05 µM
- IC50 (A-375): 0.0206 µM
- IC50 (A549 [10]): 0.07 µM
- IC50 (NCI-H1975): 0.0005 µM
- IC50 (SK-MEL3): 0.012 µM
- half-life [12]: 1.6 h
- IC50 (HepG2 [13]): 0.584 µM
- bioavailability [16]: 8.7%
- IC50 (HepG2 [17]): 0.0728 µM
- half-life [18]: 3.75 h
- IC50 (HL-60 [19]): 0.038 µM
- IC50 (HCC 2998): 0.07 µM
- half-life [22]: 1.41 h
- IC50 (PC-3): 0.026 µM
- IC50 (HeLa [24]): 0.22 µM
- IC50 (HepG2 [25]): 0.12 µM
- IC50 (MCF7 [26]): 0.06 µM
- IC50 (A549 [28]): 0.0006 µM
- half-life [30]: 3.66 h
- IC50 (HepG2 [31]): 0.128 µM
- IC50 (SNU-449): 0.236 µM
- IC50 (HCT-116 [33]): 0.06 µM
- IC50 (HepG2 [34]): 0.175 µM
- IC50 (HeLa [35]): 8.3 µM
- IC50 (SMMC-7721): 0.081 µM
- IC50 (Bel-7402): 0.0215 µM
- IC50 (MDA-MB-468): 0.04 µM
- IC50 (HuH-1): 0.0259 µM
Structure (SMILES): COc1ccc(CCc2cc(OC)c(OC)c(OC)c2)cc1O
- IC50 (143B [4]): 0.0582 µM
- IC50 (LNCaP [7]): 0.0338 µM
- IC50 (PLC-PRF-5): 0.055 µM
- IC50 (143B [8]): 0.0268 µM
- Activity (HepG2 [9]): 82.81%
- IC50 (EJM): 0.065 µM
- IC50 (LLC-MK2): 0.0023 µM
- IC50 (Ishikawa): 0.0406 µM
- IC50 (HLE): 0.0286 µM
- IC50 (T-24): 0.0459 µM
- IC50 [11]: 0.0418 µM
- IC50 [14]: 0.0443 µM
- IC50 [15]: 0.0887 µM
- IC50 (143B [20]): 0.041 µM
- IC50 [21]: 0.0177 µM
- IC50 [23]: 0.0172 µM
- IC50 (HL-60 [27]): 0.04 µM
- IC50 (LNCaP [29]): 0.0265 µM
- IC50 [32]: 0.0786 µM
- IC50 (LNCaP [36]): 0.0262 µM

Structure (SMILES): CCOc1ccc(CCc2cc(OC)c(OC)c(OC)c2)cc1OP(=O)(O)O
- IC50 (HeLa [37]): 0.57 µM

Structure (SMILES): COc1ccc(/C=C\c2cc(OC)c(OC)c(OC)c2)cc1OP(=O)(O)O [FOSBRETABULIN]
- Activity (HeLa [38]): 84.7%
- Activity (HepG2 [39]): 88.6%
- Activity (HCT-116 [40]): 86.1%

- IC50 (HCT-116 [41]): 42 µM
Structure (SMILES): Oc1ccc(CCc2cc(O)c(O)c(O)c2)cc1O
- IC50 (A549 [42]): 42 µM
